Among the data in patent US20200392150A1, “Diaryl-B-Lactam Compound and Preparation Method and Pharmaceutical Use Thereof” (Fudan University, priority 2016, published 2020) are IC50 and melting point values, retold here.

In data set [1] the test system is A2780. Put plainly: In vitro cell growth inhibition assay (MTT). The data set is classed as cell-based, human. Particulars: read-out: IC50 A2780. In short, it runs like this: (§1)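 SKOV3, A2780 or HeLa cells were seeded at 5000 per well, allowed to adhere overnight, then treated 48 h with compounds; 0.2% DMSO served as control. IC50 values came from growth inhibition rates.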

Data set [2] deals with Hela. In words: In vitro cell growth inhibition assay (MTT). The data set is classed as cell-based, human. The following applies: 48 h, read-out: IC50 Hela. The procedure, abridged: as §1
The subject of data set [3] is MDA-MB-231. In words: In vitro cell growth inhibition assay (MTT). The following applies: read-out: IC50 MDA-MB-231. The data set is classed as cell-based, human. The procedure, abridged:
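IC50 values come from growth inhibition rates calculated from MTT absorbance at 540 nm. Compound exposure lasted 48 h on cells plated at 5000 per well.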

For data set [4], the system named is SKOV3. Put plainly: In vitro cell growth inhibition assay (MTT). In kind it is cell-based, human. Particulars: read-out: IC50 SKOV3. In short, it runs like this:
as §1

Setting [5] is: A2780 human ovarian cancer cell line, 48 h, MTT.
The mark [6] stands for this setting: Hela human cervical cancer cell line, MTT.
Setting [7] is: MDA-MB-231 human breast cancer cell line, 48 h, MTT.
[8] abbreviates: SK-OV-3, SKOV-3 human ovarian cancer cell line, 48 h, MTT.

Where two headings read alike, the source gives them in different places.

Regarding `C=C1C(=O)N(c2cc(OC)c(OC)c(OC)c2)[C@H]1c1ccc(OC)c(OC(C)C)c1` [Compound 5, (S)-4-(3-isopropoxy-4-methoxyphenyl)-3-methylene-1-(3,4,5-trimethoxyphenyl)azetidin-2-one], the melting point lay in the range of 146 to 147 °C. In data set [1] (setting [5]), the IC50 worked out at 11300 nM. Also, the IC50 in data set [2] (setting [6]) was above 20000 nM. The IC50 in data set [3] (setting [7]) turned out to be 15900 nM. For the same compound, in data set [4] (setting [8]), the IC50 worked out at 18000 nM.
As for `C=CCOc1cc([C@H]2C(=C)C(=O)N2c2cc(OC)c(OC)c(OC)c2)ccc1OC` [Compound 6, (S)-4-(3-(allyloxy)-4-methoxyphenyl)-3-methylene-1-(3,4,5-trimethoxyphenyl)azetidin-2-one], the melting point was in the range of 92 to 93 °C. The IC50 in data set [1] (setting [5]) worked out at 1250 nM. The IC50 in data set [2] (setting [6]) is 1150 nM. In data set [3] (setting [7]), the IC50 was found to be 883 nM. Moreover, in data set [4] (setting [8]), the IC50 is 1480 nM.
The matching figures for `C#CCOc1cc([C@H]2C(=C)C(=O)N2c2cc(OC)c(OC)c(OC)c2)ccc1OC` [Compound 7, (S)-4-(4-methoxy-3-(prop-2-yn-1-yloxy)phenyl)-3-methylene-1-(3,4,5-trimethoxyphenyl)azetidin-2-one]: 106 to 107 °C, 429 nM, 1050 nM, 1200 nM and 841 nM.
In turn, `C=C1C(=O)N(c2cc(OC)c(OC)c(OC)c2)[C@H]1c1ccc(OC)c(OCCCl)c1` [Compound 10, (S)-4-(3-(2-chloroethoxy)-4-methoxyphenyl)-3-methylene-1-(3,4,5-trimethoxyphenyl)azetidin-2-one] displayed a melting point of 91 to 92 °C. The IC50 in data set [1] (setting [5]) was found to be 409 nM. Also, in data set [2] (setting [6]), the IC50 stood at 887 nM. Moreover, the IC50 in data set [3] (setting [7]) turned out to be 608 nM. The IC50 in data set [4] (setting [8]) stood at 864 nM.
`C=C1C(=O)N(c2cc(OC)c(OC)c(OC)c2)[C@H]1c1ccc(OC)c(OCCCCl)c1` [Compound 11, (S)-4-(3-(3-chloropropoxy)-4-methoxyphenyl)-3-methylene-1-(3,4,5-trimethoxyphenyl)azetidin-2-one] registered a melting point of 72 to 73 °C. Moreover, the IC50 in data set [1] (setting [5]) turned out to be 2180 nM. Further, the IC50 in data set [2] (setting [6]) turned out to be 6040 nM. For the same compound, the IC50 in data set [3] (setting [7]) was determined as 4150 nM. In data set [4] (setting [8]), the IC50 amounted to 4070 nM.
In turn, `C=C1C(=O)N(c2cc(OC)c(OC)c(OC)c2)[C@H]1c1ccc(OC)c(OCCN2CCOCC2)c1` [Compound 15, (S)-4-(4-methoxy-3-(2-morpholinoethoxy)phenyl)-3-methylene-1-(3,4,5-trimethoxyphenyl)azetidin-2-one] had a melting point of 86 to 87 °C. For the same compound, the IC50 in data set [1] (setting [5]) is above 10000 nM. In addition, the IC50 in data set [2] (setting [6]) was above 10000 nM. In data set [3] (setting [7]), the IC50 was above 10000 nM. Also, the IC50 in data set [4] (setting [8]) is above 10000 nM.
`C=C1C(=O)N(c2cc(OC)c(OC)c(OC)c2)[C@H]1c1ccc(OC)c(OC(=O)c2ccccc2)c1` [Compound 18, (S)-2-methoxy-5-(3-methylene-4-oxo-1-(3,4,5-trimethoxyphenyl)azetidin-2-yl)phenyl benzoate] had a melting point of 151 to 152 °C. Further, the IC50 in data set [1] (setting [5]) came to 287 nM. The IC50 in data set [2] (setting [6]) was 386 nM. Moreover, the IC50 in data set [3] (setting [7]) stood at 637 nM. Also, in data set [4] (setting [8]), the IC50 stood at 484 nM.
`C=C1C(=O)N(c2cc(OC)c(OC)c(OC)c2)[C@H]1c1ccc(OC)c(OC(=O)c2ccc([N+](=O)[O-])cc2)c1` [Compound 19, (S)-2-methoxy-5-(3-methylene-4-oxo-1-(3,4,5-trimethoxyphenyl)azetidin-2-yl)phenyl 4-nitrobenzoate]: the melting point lay within 88 to 89 °C. In data set [1] (setting [5]), the IC50 is 55 nM. Further, in data set [2] (setting [6]), the concentration for half-maximal inhibition (IC50) stood at 102 nM. Further, the IC50 in data set [3] (setting [7]) was found to be 105 nM. For the same compound, in data set [4] (setting [8]), the IC50 was found to be 84 nM.
The compound `C=C1C(=O)N(c2cc(OC)c(OC)c(OC)c2)[C@H]1c1ccc(OC)c(OC(=O)c2ccc(F)cc2)c1` [Compound 20, (S)-2-methoxy-5-(3-methylene-4-oxo-1-(3,4,5-trimethoxyphenyl)azetidin-2-yl)phenyl 4-fluorobenzoate] gave a melting point of 185 to 186 °C. In data set [1] (Homo sapiens, A2780, 48 h), the 50% inhibitory concentration (IC50) amounted to 169 nM. For the same compound, in data set [2] (Homo sapiens, HeLa), the IC50 turned out to be 75 nM. The half-maximal inhibitory concentration (IC50) in data set [3] (Homo sapiens, MDA-MB-231, 48 h) stood at 223 nM. For the same compound, in data set [4] (Homo sapiens, SK-OV-3, 48 h), the IC50 was found to be 114 nM.
`C=C1C(=O)N(c2cc(OC)c(OC)c(OC)c2)[C@H]1c1ccc(OC)c(OC(=O)c2cccnc2)c1` [Compound 22, (S)-2-methoxy-5-(3-methylene-4-oxo-1-(3,4,5-trimethoxyphenyl)azetidin-2-yl)phenyl nicotinate] registered a melting point of 113 to 114 °C. In addition, the IC50 in data set [1] (setting [5]) turned out to be 112 nM. In data set [2] (setting [6]), the half-maximal inhibitory concentration (IC50) came out at 115 nM. Also, the IC50 in data set [3] (setting [7]) was 151 nM. Further, the IC50 in data set [4] (setting [8]) was determined as 75 nM.
In turn, `C=C1C(=O)N(c2cc(OC)c(OC)c(OC)c2)[C@H]1c1ccc(OC)c(OC(=O)C2CC2)c1` [Compound 23, (S)-2-methoxy-5-(3-methylene-4-oxo-1-(3,4,5-trimethoxyphenyl)azetidin-2-yl)phenyl cyclopropanecarboxylate] yielded a melting point of 68 to 69 °C. Besides, in data set [1] (Homo sapiens, A2780, 48 h), the IC50 came out at 129 nM. Further, in data set [2] (Homo sapiens, HeLa), the IC50 is 142 nM. For the same compound, the IC50 in data set [3] (Homo sapiens, MDA-MB-231, 48 h) is 207 nM. The IC50 in data set [4] (Homo sapiens, SK-OV-3, 48 h) was 108 nM.
Turning to `C=CC(=O)Oc1cc([C@H]2C(=C)C(=O)N2c2cc(OC)c(OC)c(OC)c2)ccc1OC` [Compound 24, (S)-2-methoxy-5-(3-methylene-4-oxo-1-(3,4,5-trimethoxyphenyl)azetidin-2-yl)phenyl acrylate], the melting point fell in the range of 109 to 110 °C. For the same compound, the IC50 in data set [1] (setting [5]) is 328 nM. Further, in data set [2] (setting [6]), the IC50 is 490 nM. Moreover, the IC50 in data set [3] (setting [7]) was found to be 565 nM. Besides, the IC50 in data set [4] (setting [8]) stood at 522 nM.
For `C=C1C(=O)N(c2cc(OC)c(OC)c(OC)c2)[C@H]1c1ccc(OC)c(OC(=O)N2CCOCC2)c1` [Compound 25, (S)-2-methoxy-5-(3-methylene-4-oxo-1-(3,4,5-trimethoxyphenyl)azetidin-2-yl)phenyl morpholine-4-carboxylate] the same measures were 82 to 83 °C, above 10000 nM, above 10000 nM, above 10000 nM and above 10000 nM.
In turn, `C=C1C(=O)N(c2cc(OC)c(OC)c(OC)c2)[C@H]1c1ccc(OC)c(OS(N)(=O)=O)c1` [Compound 26, (S)-2-methoxy-5-(3-methylene-4-oxo-1-(3,4,5-trimethoxyphenyl)azetidin-2-yl)phenyl sulfamate] showed a melting point of 199 to 200 °C. Besides, the IC50 in data set [1] (setting [5]) was found to be 133 nM. Moreover, in data set [2] (setting [6]), the IC50 came to 224 nM. Also, the half-maximal inhibitory concentration (IC50) in data set [3] (setting [7]) worked out at 240 nM. The IC50 in data set [4] (setting [8]) worked out at 177 nM.
The matching figures for `C=C1C(=O)N(c2cc(OC)c(OC)c(OC)c2)[C@H]1c1ccc(OC)c(OS(=O)(=O)CCN2C(=O)c3ccccc3C2=O)c1` [Compound 28, (S)-2-methoxy-5-(3-methylene-4-oxo-1-(3,4,5-trimethoxyphenyl)azetidin-2-yl)phenyl 2-(1,3-dioxoisoindolin-2-yl)ethanesulfonate]: 69 to 70 °C, 16800 nM, above 20000 nM, above 20000 nM and 13300 nM.
`C=C1C(=O)N(c2cc(OC)c(OC)c(OC)c2)[C@H]1c1ccc(OC)c(OS(=O)(=O)N2CCOCC2)c1` [Compound 29, (S)-2-methoxy-5-(3-methylene-4-oxo-1-(3,4,5-trimethoxyphenyl)azetidin-2-yl)phenyl morpholine-4-sulfonate] displayed a melting point of 134 to 135 °C. In addition, the IC50 in data set [1] (setting [5]) is 12900 nM. Besides, the IC50 in data set [2] (setting [6]) amounted to 19300 nM. Also, in data set [3] (setting [7]), the IC50 is above 20000 nM. Also, the IC50 in data set [4] (setting [8]) was found to be 15600 nM.
Compound `C=C1C(=O)N(c2cc(OC)c(OC)c(OC)c2)[C@H]1c1ccc(OC)c(OS(=O)(=O)CCCC)c1` [Compound 31, (S)-2-methoxy-5-(3-methylene-4-oxo-1-(3,4,5-trimethoxyphenyl)azetidin-2-yl)phenyl butane-1-sulfonate] came in with a melting point of 99 to 100 °C. Further, in data set [1] (setting [5]), the IC50 stood at 5320 nM. Besides, the IC50 in data set [2] (setting [6]) was 14000 nM. Besides, the IC50 in data set [3] (setting [7]) came to 7290 nM. Besides, the IC50 in data set [4] (setting [8]) came out at 10200 nM.
With `C=C1C(=O)N(c2cc(OC)c(OC)c(OC)c2)[C@H]1c1ccc(OC)c(OC(=O)CNC(=O)OC(C)(C)C)c1` [Compound 34, (S)-2-methoxy-5-(3-methylene-4-oxo-1-(3,4,5-trimethoxyphenyl)azetidin-2-yl)phenyl 2-((tert-butoxycarbonyl)amino)acetate], the melting point was 88 to 89 °C. Moreover, the IC50 in data set [1] (setting [5]) is 240 nM. Moreover, the half-maximal inhibitory concentration (IC50) in data set [2] (setting [6]) is 62 nM. Also, in data set [3] (setting [7]), the IC50 was determined as 335 nM. For the same compound, the IC50 in data set [4] (setting [8]) stood at 264 nM.
The matching figures for `C=C1C(=O)N(c2cc(OC)c(OC)c(OC)c2)[C@H]1c1ccc(OC)c(Cl)c1` [Compound 39, (S)-4-(3-chloro-4-methoxyphenyl)-3-methylene-1-(3,4,5-trimethoxyphenyl)azetidin-2-one]: 119 to 120 °C, 316 nM, 371 nM, 512 nM and 341 nM.
